According to US6887889B2 (Pharmacopeia Drug Discovery, Inc., priority 2001, dated 2005):
pKi: −log10 of the molar value.

target: T1, hMCHR (Homo sapiens, UniProt Q99705); assay: MCH Assay PCOP Protocol: [125I]-MCH binding to hMCHR-CHO membranes, WGA-SPA beads; details: hMCHR-CHO overexpressing membranes, 0.5 nM [125I]-MCH, 2 hours incubation
T1 construct: host or cells: CHO (Chinese hamster ovary) cells, membranes
Method: A reaction mixture of 10 μg hMCHR-CHO overexpressing membranes (from Receptor Biology, Inc., Beltville, Md., or internally produced) and 100 μg/well WGA-SPA beads (from Amersham Pharmacia Biotech, Inc., Piscataway, N.J.)/100 μL was prepared in MCHR assay buffer (25 mM HEPES, pH 7.4, 10 mM NaCl, 10 mM MgCl2, 5 mM MnCl2, 0.1%BSA). […] The assay plates were shaken for 5 minutes on a plate shaker, then incubated for 2 hours before cpm/well were determined in a Microbeta Trilux counter (from Perkin Elmer Wallac, Inc., Gaithersburg, Md.).

T1 sequence (Q99705 whole entry): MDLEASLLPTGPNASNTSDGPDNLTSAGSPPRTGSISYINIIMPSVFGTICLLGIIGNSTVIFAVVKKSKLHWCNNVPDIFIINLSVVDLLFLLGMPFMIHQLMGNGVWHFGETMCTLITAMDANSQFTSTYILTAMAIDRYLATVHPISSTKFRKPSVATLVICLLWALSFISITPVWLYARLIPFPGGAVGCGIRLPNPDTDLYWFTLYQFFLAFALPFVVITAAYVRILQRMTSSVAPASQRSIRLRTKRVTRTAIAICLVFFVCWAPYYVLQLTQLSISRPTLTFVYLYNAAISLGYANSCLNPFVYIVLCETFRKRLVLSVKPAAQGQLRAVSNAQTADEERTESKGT

| Molecule | pKi |
| --- | --- |
| COCCN1CCC(CNC(=O)Nc2ccc(OC)c(Cl)c2)(c2ccc(-c3cccc(C#N)c3)cc2)CC1 [Example 95] | 7.00 to 7.96 |
| Cc1ccc(C2(CNC(=O)Nc3cc(Cl)cc(Cl)c3)CCNCC2)cc1 [Example 23] | 5.26 to 7.00 |
| CCCN1CCC(CNC(=O)Nc2cc(C(F)(F)F)ccc2Cl)(c2ccc(-c3cccc(Cl)c3)cc2)CC1 [Example 58] | 5.26 to 7.00 |
| COCCN1CCC(CNC(=O)Nc2ccc3c(c2)OCO3)(c2ccc(-c3cccc(C#N)c3)cc2)CC1 [Example 92] | 8.00 to 9.70 |
| CC(C)N1CCC(CNC(=O)Nc2cc(Cl)cc(Cl)c2)(c2ccc(-c3ccc4c(c3)OCO4)cc2)CC1 [Example 82] | 8.00 to 9.70 |
| O=C(Nc1cc(Cl)cc(Cl)c1)N1CCC(CNCC2CC2)(c2ccc(-c3ccc4c(c3)OCO4)cc2)CC1 [Example 125] | 5.26 to 7.00 |
| CC(=O)Nc1cccc(-c2ccc(C3(CNC(=O)Nc4cc(Cl)cc(Cl)c4)CCN(C4CCCCC4)CC3)cc2)c1 [Example 122] | 8.00 to 9.70 |
| N#Cc1cccc(-c2ccc(C3(CN(CC4CC4)CC4CC4)CCN(C(=O)Nc4cc(Cl)cc(Cl)c4)CC3)cc2)c1 [Example 130] | 5.26 to 7.00 |
| CN1CCC(CNC(=O)Nc2ccc(Cl)c(C(F)(F)F)c2)(c2ccc(-c3cccc(Cl)c3)cc2)CC1 [Example 51] | 8.00 to 9.70 |
| N#Cc1cccc(-c2ccc(C3(CNC(=O)Nc4ccc(F)c(Cl)c4)CCN(CCC(F)(F)F)CC3)cc2)c1 [Example 117] | 8.00 to 9.70 |
| CC(=O)Nc1cccc(-c2ccc(C3(CNC(=O)Nc4cc(Cl)cc(Cl)c4)CCN(C4CCOCC4)CC3)cc2)c1 [Example 110] | 7.00 to 7.96 |
| O=C(Nc1cc(Cl)cc(Cl)c1)N1CCC(CNCC2CC2)(c2ccc(-c3cccc(Cl)c3)cc2)CC1 [Example 128] | 5.26 to 7.00 |
| CCCN1CCC(CNC(=O)Nc2ccc(F)c(C(F)(F)F)c2)(c2ccc(-c3cccc(C#N)c3)cc2)CC1 [Example 103] | 8.00 to 9.70 |
| CCCN1CCC2(CC1)CN(C(=O)Nc1ccc(F)c(Cl)c1)c1ccc(-c3cccc(C#N)c3)cc12 [Example 46] | 5.26 to 7.00 |
| N#Cc1cccc(-c2ccc(C3(CNC(=O)Nc4cc(Cl)cc(Cl)c4)CCN(CCC(F)(F)F)CC3)cc2)c1 [Example 118] | 8.00 to 9.70 |
| O=C(NCC1(c2ccc(-c3ccc4c(c3)OCO4)cc2)CCN(C2CCCC2)CC1)Nc1cc(Cl)cc(Cl)c1 [Example 81] | 8.00 to 9.70 |
| CN(C)S(=O)(=O)N1CCC(CNC(=O)Nc2cc(Cl)cc(Cl)c2)(c2ccc(-c3cccc(C#N)c3)cc2)CC1 [Example 31] | 7.00 to 7.96 |
| COCCN1CCC(CN(C)C(=O)Nc2cc(Cl)cc(Cl)c2)(c2ccc(-c3cccc(C#N)c3)cc2)CC1 [Example 88] | 8.00 to 9.70 |
| CN1CCC2(CC1)CN(C(=O)Nc1ccc(F)c(Cl)c1)c1cccc(-c3cccc(C#N)c3)c12 [Example 75] | 5.26 to 7.00 |
| CCCN1CCC(CNC(=O)Nc2ccc(F)c(Cl)c2)(c2ccc(-c3cccc(C#N)c3)cc2)CC1 [Example 65] | 8.00 to 9.70 |
| CCCN1CCC(CNC(=O)Nc2ccc3c(c2)OCO3)(c2ccc(-c3cccc(C#N)c3)cc2)CC1 [Example 101] | 7.00 to 7.96 |
| COc1ccc(-c2ccc(C3(CNC(=O)Nc4cc(Cl)cc(Cl)c4)CCN(C)CC3)cc2)cn1 [Example 44] | 7.00 to 7.96 |

| Molecule | pKi |
| --- | --- |
| CC(=O)Nc1cccc(-c2ccc(C3(CNC(=O)Nc4cc(Cl)cc(Cl)c4)CCN(C(C)C)CC3)cc2)c1 [Example 79] | 8.00 to 9.70 |
| CN1CCC(CNC(=O)Nc2cc(Cl)cc(Cl)c2)(c2ccc(-c3cccc(N)c3)cc2)CC1 [Example 41] | 7.00 to 7.96 |
| COCCN1CCC(CNCc2cc(Cl)cc(Cl)c2)(c2ccc(-c3cccc(Cl)c3)cc2)CC1 [Example 129] | 5.26 to 7.00 |
| O=C(NCC1(c2ccc(-c3cccc(Cl)c3)cc2)CCN(CC2CC2)CC1)Nc1cc(Cl)cc(Cl)c1 [Example 70] | 8.00 to 9.70 |
| CN1CCC(CNC(=O)Nc2ccccc2)(c2ccc(-c3cccc(Cl)c3)cc2)CC1 [Example 62] | 8.00 to 9.70 |
| N#Cc1cccc(-c2ccc(C3(CNC(=O)Nc4ccc(Cl)c(C(F)(F)F)c4)CCN(CC4CC4)CC3)cc2)c1 [Example 50] | 8.00 to 9.70 |
| CN1CCC(CN2CCN(c3ccc(F)c(F)c3)C2=O)(c2ccc(-c3cccc(C#N)c3)cc2)CC1 [Example 13] | 7.00 to 7.96 |
| CN1CCC(CNC(=O)Cc2ccc(Cl)c(Cl)c2)(c2ccc(-c3cccc(C#N)c3)cc2)CC1 [Example 87] | 7.00 to 7.96 |
| O=C(NCC1(c2ccc(-c3cccnc3)cc2)CCN(C2CCCC2)CC1)Nc1cc(Cl)cc(Cl)c1 [Example 20] | 8.00 to 9.70 |
| CN1CCC(CNC(=O)Nc2ccc(Cl)cc2Cl)(c2ccc(-c3cccc(C#N)c3)cc2)CC1 [Example 36] | 7.00 to 7.96 |
| N#Cc1cccc(-c2ccc(C3(CNC(=O)Nc4cc(C(F)(F)F)ccc4Cl)CCN(CC4CC4)CC3)cc2)c1 [Example 68] | 7.00 to 7.96 |
| COCCN1CCC(CNC(=O)Nc2ccc(F)c(F)c2)(c2ccc(-c3cccc(C#N)c3)cc2)CC1 [Example 91] | 8.00 to 9.70 |
| CCCN1CCC(CNC(=O)Nc2ccc(Cl)c(C(F)(F)F)c2)(c2ccc(-c3cccc(Cl)c3)cc2)CC1 [Example 64] | 7.00 to 7.96 |
| N#Cc1cccc(-c2ccc(C3(CNCC4CC4)CCN(C(=O)Nc4cc(Cl)cc(Cl)c4)CC3)cc2)c1 [Example 131] | 7.00 to 7.96 |
| CCCN1CCC(CNC(=O)Nc2ccc(Cl)cc2C(F)(F)F)(c2ccc(-c3cccc(Cl)c3)cc2)CC1 [Example 52] | 5.26 to 7.00 |
| COCCN1CCC(CNCc2cc(Cl)cc(Cl)c2)(c2ccc(-c3cccc(NC(C)=O)c3)cc2)CC1 [Example 135] | 5.26 to 7.00 |
| CC(C)COC(=O)NCC1(c2ccc(-c3cccc(C#N)c3)cc2)CCN(CC2CC2)CC1 [Example 12, [4-(3′-Cyano-biphenyl-4-yl)-1-cyclopropylmethyl-piperidin-4-ylmethyl]-carbamic acid isobutyl ester] | 5.26 to 7.00 |
| CCCNCC1(c2ccc(-c3cccc(C#N)c3)cc2)CCN(C(=O)Nc2cc(Cl)cc(Cl)c2)CC1 [Example 134] | 7.00 to 7.96 |
| COCCN1CCC(CNC(=O)Nc2ccc(F)c(Cl)c2)(c2ccc(-c3cccc(C#N)c3)cc2)CC1 [Example 90] | 8.00 to 9.70 |
| Cc1ccc(C2(CNC(=O)Nc3cc(Cl)cc(Cl)c3)CCN(CC3CC3)CC2)cc1 [Example 25] | 5.26 to 7.00 |
| CN(CC1(c2ccc(-c3cccc(C#N)c3)cc2)CCN(CC2CC2)CC1)C(=O)Nc1ccc(Cl)c(C(F)(F)F)c1 [Example 104] | 7.00 to 7.96 |
| CC(=O)c1cccc(-c2ccc(C3(CNC(=O)Nc4cc(Cl)cc(Cl)c4)CCN(C(C)C)CC3)cc2)c1 [Example 80] | 7.00 to 7.96 |

| Molecule | pKi |
| --- | --- |
| O=C(NCC1(c2ccc(-c3cccc(Cl)c3)cc2)CCN(CC2CC2)CC1)Nc1cc(C(F)(F)F)ccc1Cl [Example 73] | 5.26 to 7.00 |
| O=C(Nc1cc(Cl)cc(Cl)c1)N1CCC(CN(CC2CC2)CC2CC2)(c2ccc(-c3cccc(Cl)c3)cc2)CC1 [Example 126] | 5.26 to 7.00 |
| CCCN1CCC2(CC1)CN(C(=O)Nc1ccc(Cl)c(Cl)c1)c1ccc(-c3cccc(C#N)c3)cc12 [Example 45] | 5.26 to 7.00 |
| 3-Chloro-N-[4-(3′-cyano-biphenyl-4-yl)-1-cyclopropylmethyl-piperidin-4-ylmethyl]-4-fluoro-benzenesulfonamide [Example 11] | 5.26 to 7.00 |
| CN1CCC(CNC(=O)Nc2cc(F)cc(F)c2)(c2ccc(-c3cccc(Cl)c3)cc2)CC1 [Example 55] | 8.00 to 9.70 |
| CCN1CCC(CNC(=O)Nc2cc(Cl)cc(Cl)c2)(c2ccc(-c3cccc(OC(F)(F)F)c3)cc2)CC1 [Example 123] | 7.00 to 7.96 |
| CN1CCC(CNC(=O)Nc2ccc(Cl)cc2C(F)(F)F)(c2ccc(-c3cccc(Cl)c3)cc2)CC1 [Example 59] | 5.26 to 7.00 |
| CN(CC1(c2ccc(-c3cccc(C#N)c3)cc2)CCN(CC2CC2)CC1)C(=O)Nc1cc(Cl)cc(Cl)c1 [Example 14, 1-[4-(3′-Cyano-biphenyl-4-yl)-1-cyclopropylmethyl-piperidin-4-ylmethyl]-3-(3,5-dichloro-phenyl)-1-methyl-urea] | 8.00 to 9.70 |
| COCCN1CCC(CNC(=O)Nc2cc(Cl)cc(Cl)c2)(c2ccc(-c3ccc4c(c3)OCO4)cc2)CC1 [Example 33] | 7.00 to 7.96 |
| O=C(NCC1(c2ccc(-c3cccc(Cl)c3)cc2)CCN(C2CCOCC2)CC1)Nc1cc(Cl)cc(Cl)c1 [Example 114] | 5.26 to 7.00 |
| CN1CCC(CNC(=O)Nc2ccc(Cl)cc2C(F)(F)F)(c2ccc(-c3cccc(C#N)c3)cc2)CC1 [Example 67] | 5.26 to 7.00 |
| COCCN1CCC2(CC1)CN(C(=O)Nc1ccc(F)c(Cl)c1)c1ccc(-c3cccc(C#N)c3)cc12 [Example 86] | 5.26 to 7.00 |
| CN1CCC(CNC(=O)Nc2cc(C(F)(F)F)ccc2Cl)(c2ccc(-c3cccc(C#N)c3)cc2)CC1 [Example 69] | 7.00 to 7.96 |
| CN1CCC(CNC(=O)c2cc(Cl)cc(Cl)c2)(c2ccc(-c3cccc(Cl)c3)cc2)CC1 [Example 72] | 5.26 to 7.00 |
| CN1CCC(CNC(=O)Nc2cc(Cl)cc(Cl)c2)(c2cccc(Cl)c2)CC1 [Example 24] | 5.26 to 7.00 |
| CCCN1CCC(CNC(=O)Nc2cc(F)cc(F)c2)(c2ccc(-c3cccc(C#N)c3)cc2)CC1 [Example 102] | 8.00 to 9.70 |
| CN1CCC(CNC(=O)Nc2cc(C(F)(F)F)ccc2Cl)(c2ccc(-c3cccc(Cl)c3)cc2)CC1 [Example 57] | 7.00 to 7.96 |
| CC(C)CN1CCC(CNC(=O)Nc2cc(Cl)cc(Cl)c2)(c2ccc(-c3cccc(Cl)c3)cc2)CC1 [Example 112] | 7.00 to 7.96 |
| COCCN1CCC(CNCc2cc(Cl)cc(Cl)c2)(c2ccc(-c3cccc(C#N)c3)cc2)CC1 [Example 127] | 5.26 to 7.00 |
| CN1CCC(CN(C)C(=O)Nc2cc(Cl)cc(Cl)c2)(c2ccc(-c3cccc(C#N)c3)cc2)CC1 [Example 38] | 8.00 to 9.70 |
| CCCN1CCC(CNC(=O)Nc2cc(Cl)cc(Cl)c2)(c2ccc(-c3cccc(Cl)c3)cc2)CC1 [Example 74] | 8.00 to 9.70 |
| N#Cc1cccc(-c2ccc(C3(CNC(=O)Nc4cc(Cl)cc(Cl)c4)CCN(C4CCOCC4)CC3)cc2)c1 [Example 109] | 8.00 to 9.70 |
